From US8232263B2, “17,20(Z)-dehydro vitamin D analogs and their uses” (Wisconsin Alumni Research Foundation, priority 2004, dated 2012)
Entries after “also recorded” stand apart in the source; their conditions may differ.

Key:
[1] = test system: Human promyelocytic leukemia (HL60) cells; experiment: HL-60 differentiation (nitro blue tetrazolium reduction); assay type: cell-based; settings: FIG. 2; for EC50: HL60 cells, four days after treatment
Method: The study drugs were dissolved in ethanol and the concentrations determined using UV spectrophotometry. Serial dilutions were prepared so that a range of drug concentrations could be tested without changing the final concentration of ethanol (≦0.2%) present in the cell cultures.
Human promyelocytic leukemia (HL60) cells were grown in RPMI-1640 medium containing 10% fetal bovine serum. The cells were incubated at 37° C. in the presence of 5% CO2.
HL60 cells were plated at 1.2×10^5 cells/ml. Eighteen hours after plating, cells in duplicate were treated with drug. Four days later, the cells were harvested and a nitro blue tetrazolium reduction assay was performed (Collins et al., 1979; J. Exp. Med. 149:969-974). The percentage of differentiated cells was determined by counting a total of 200 cells and recording the number that contained intracellular black-blue formazan deposits. Verification of differentiation to monocytic cells was determined by measuring phagocytic activity (data not shown).

[2] = Bone calcium mobilization (serum calcium) in vitamin D-deficient rats; assay type: in vivo, Sprague-Dawley rats
Method: (§1) Male, weanling Sprague-Dawley rats were placed on Diet 11 (Suda et al, J. Nutr. 100:1049, 1970) (0.47% Ca)+vitamins AEK for one week followed by Diet 11 (0.02% Ca)+vitamins AEK for 3 weeks. The rats were then switched to the same diet containing 0.47% Ca for one week followed by two weeks on the same diet containing 0.02% Ca. Dose administration began during the last week on 0.02% calcium diet. Four consecutive ip doses were given approximately 24 hours apart. Twenty-four hours after the last dose, blood was collected from the severed neck and the concentration of serum calcium determined by atomic absorption spectrometry as a measure of bone calcium mobilization. The first 10 cm of the intestine was also collected for intestinal calcium transport analysis using the everted gut sac method.
(§2) Antagonism was tested by administering a combination of 1,25(OH)2D3 and the compound to the animal simultaneously.

[3] = test system: 24-hydroxylase (24Ohase) gene promoter in ROS 17/2.8 (bone) cells; experiment: In vitro transcription assay (luciferase reporter); assay type: cell-based; settings: FIG. 3; for EC50: ROS 17/2.8 cells, 24Ohase promoter-luciferase, sixteen hours after dosing, read-out: EC50, transcriptional activity in bone cells
Method: Transcription activity was measured in ROS 17/2.8 (bone) cells that were stably transfected with a 24-hydroxylase (24Ohase) gene promoter upstream of a luciferase reporter gene (Arbour et al., 1998). Cells were given a range of doses. Sixteen hours after dosing the cells were harvested and luciferase activities were measured using a luminometer. RLU=relative luciferase units.

[4] = biological target: T1, full-length recombinant rat vitamin D receptor (Rattus norvegicus, UniProt P13053); experiment: Vitamin D receptor binding, competition with [3H]-1,25(OH)2D3; settings: FIG. 1
T1 construct: Full-length recombinant rat receptor was expressed in E. coli BL21 (DE3) Codon Plus RIL cells; histidine tag (C); made in house; host or cells: E. coli BL21 (DE3) Codon Plus RIL
T1 sequence (P13053 1-423): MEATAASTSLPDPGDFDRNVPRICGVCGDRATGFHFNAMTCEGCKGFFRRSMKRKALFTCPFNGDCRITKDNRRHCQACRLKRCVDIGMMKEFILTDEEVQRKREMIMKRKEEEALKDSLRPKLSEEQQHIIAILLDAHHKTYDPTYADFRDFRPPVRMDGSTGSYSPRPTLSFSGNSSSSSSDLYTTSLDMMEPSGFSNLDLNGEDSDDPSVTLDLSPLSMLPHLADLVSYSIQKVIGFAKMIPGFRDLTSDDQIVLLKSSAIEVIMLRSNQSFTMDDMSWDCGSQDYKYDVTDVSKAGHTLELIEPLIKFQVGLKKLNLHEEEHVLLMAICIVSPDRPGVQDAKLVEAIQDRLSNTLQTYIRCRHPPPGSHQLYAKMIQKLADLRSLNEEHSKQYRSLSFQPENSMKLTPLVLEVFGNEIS
Method: Full-length recombinant rat receptor was expressed in E. coli BL21 (DE3) Codon Plus RIL cells and purified to homogeneity using two different column chromatography systems. The first system was a nickel affinity resin that utilizes the C-terminal histidine tag on this protein. The protein that was eluted from this resin was further purified using ion exchange chromatography (S-Sepharose Fast Flow). Aliquots of the purified protein were quick frozen in liquid nitrogen and stored at −80° C. until use. For use in binding assays, the protein was diluted in TEDK50 (50 mM Tris, 1.5 mM EDTA, pH7.4, 5 mM DTT, 150 mM KCl) with 0.1% Chaps detergent. The receptor protein and ligand concentration was optimized such that no more than 20% of the added radiolabeled ligand was bound to the receptor.
Radiolabeled and unlabeled ligands were added to 100 mcl of the diluted protein at a final ethanol concentration of ≦10%, mixed and incubated overnight on ice to reach binding equilibrium. The following day, 100 mcl of hydroxylapatite slurry (50%) was added to each tube and mixed at 10-minute intervals for 30 minutes. The hydroxylapaptite was collected by centrifugation and then washed three times with Tris-EDTA buffer (50 mM Tris, 1.5 mM EDTA, pH 7.4) containing 0.5% Titron X-100. […] Total binding was determined from the tubes containing only radiolabeled ligand.

[5] = Intestinal calcium transport, everted gut sac method, in vitamin D-deficient rats; assay type: in vivo, Sprague-Dawley rats; settings: VIT-III 260, 2340 or 7020 pmol/day versus 1,25(OH)2D3 260 pmol/day, FIG. 5
Method: as §1, §2

binding to the receptor as compared to 1,25-(OH)2D3 ([4]; full length recombinant rat VDR)	Ki ([4]; full-length recombinant rat VDR) [nM]	EC50 ([1]; Homo sapiens, HL-60, 96 h) [nM]	SMILES	EC50 [1] [nM]	serum calcium levels ([2]; native hormone at the dosage tested, FIG. 4)	EC50 [3] [nM]	HL-60 cell differentiation potency as compared to 1,25(OH)2D3 [1]	intestinal calcium transport activity as compared to 1,25(OH)2D3 [5]	mobilization of bone calcium (serum calcium) ([2]; 260 pmol/day for 4 consecutive days)	mobilization of bone calcium (serum calcium) ([2]; 2340 pmol/day and then 7020 pmol/day)	transcriptional activity in bone cells as compared to 1α,25-dihydroxyvitamin D3 [3]
–	–	–	C=C1/C(=C\C=C2/CCC[C@]3(C)[C@@H]([C@H](C)CCCC(C)(C)O)CC[C@@H]23)C[C@@H](O)C[C@@H]1O [1α,25-dihydroxyvitamin D3, reference compound]	1.3	increased serum calcium levels	0.29	–	–	–	–	–
bound equally well	0.05	0.37	C=C1[C@H](O)CC(=C/C=C2\CCC[C@]3(C)/C(=C(/C)CCCC(C)(C)O)CC[C@@H]23)C[C@H]1O [VIT-III, 17(Z)-1α,25-dihydroxy-17(20)-dehydro-2-methylene-19-norvitamin D3]	–	–	0.0044	as potent as 1,25(OH)2D3	significant increase in intestinal calcium transport activity; also recorded: relatively high activity	significant mobilization of bone calcium	progressively increasing serum calcium levels well above the effects seen with 1,25(OH)2D3	about the same transcriptional activity
